Data on nine compounds can be found in US5707821A, “Identification of phospholipase A2 inhibitors in Aβ peptide-mediated neurodegenerative disease” (priority 1995, dated 1998).

Read-outs that look alike come from different tables or passages of the source.

Data set [1] has as its system IL-1β release by cultured human cortical microglia. Description: IL-1β release (ELISA) from Aβ1-40-stimulated human microglia. It counts as cell-based. The note with it: 50 μM Aβ1-40, 1 day; compound 0, 5, 10, 20 μM; FIG. 2. The procedure: (§1) Cultures of human cortical or hippocampal astrocytes and microglia were prepared using a modification of the procedure described for cortical neurons. Cortical tissue from fetuses of 16 to 20 weeks of gestation was washed 3 times in Ca^2+ /Mg^2+ free Hanks balanced salt solution (CMF HBSS) and then dissociated by repeated pipetting. The solution was brought to a final volume of 80 ml CMF HBSS for approximately 10 ml of tissue. DNase (Sigma) was added to a final concentration of 0.05 mg/ml. 20 ml of the solution was passed through one 100 μm nylon cell strained (Falcon). The cells were then centrifuged for 5 minutes at 200×G in an IEC Clinical Centrifuge and resuspended in a trypsin/EDTA solution (0.05% trypsin+0.53 mM EDTA in HBSS; Gibco) and incubated for 20 minutes at 37°C. (10 ml of trypsin was added per 2-3 ml of tissue). The trypsin was then inactivated by adding (MEM/FBS): Modified Eagle's Medium (MEM) containing 1% glucose, 1 mM sodium pyruvate, 1 mM glutamine, and supplemented with 10% fetal bovine serum (JRH). After adding a final concentration of 0.05 mg/ml DNase the cells were resuspended and then pelleted by centrifugation and resuspended in MEM/FBS. 1.6×10^8 cells were seeded in a T-150 tissue culture flask coated with polyethyleneimine (PEI). (10% PEI (Sigma) was diluted 1:10 in H2 O, filtered through a […] unit and then diluted into 150 mM sodium borate pH 8.5 at 1:100. The flasks were coated overnight at room temperature, washed two times in PBS and coated with 20 ml/flask of MEM/FBS at 37° C. for at least one hour prior to plating cells.) Cultures were maintained in a H2 O-saturated incubator with an atmosphere of 95% air/5% CO2 at 37° C. The culture medium was changed one and four days after plating and the cultures were then left undisturbed for at least one week. After approximately two weeks in vitro, the flasks were gently shaken and floating microglia were collected and centrifuged for 5 minutes at 200×G in an IEC Clinical Centrifuge. The microglia were reseeded in 96 well tissue culture plates at a density of 5,000-40,000 cells/well in 125 μl in MEM/FBS. Astrocyte cultures were prepared by multiple passaging of the established mixed brain cell cultures. Each T-150 was incubated for 3-4 minutes at 37°C. with a trypsin/EDTA solution (see above). The trypsin was then inactivated by adding MEM/FBS. The cells were triturated and then pelleted by centrifugation and resuspended in MEM/FBS. The cells from one T-150 were seeded at a 1:30 to 1:5 dilution in T-150's not coated. Just prior to confluency the cells were repassaged by trypsinization as described above. This process was repeated until the cultures were >98% pure astrocytes.
(§2) Cultured microglial cells were treated with 50 μM of Aβ1-40 or vehicle only (Control). The levels of IL-1β, IL-6, and TNF-α released into the culture medium were determined by ELISA assay (R&D Systems) according to manufacturer's instructions.
(§3) The effect of two benzenesulfonamide inhibitors of PLA2 (European Patent Application 468 054) were examined on the activation of microglial cells by Aβ1-40 as in Example 1.
(§4) The effects of the benzenesulfonamide PLA2 inhibitor AN20606 and the selective cytosolic PLA2 inhibitor arachidonyl trifluoromethyl ketone (AN20579) were examined in cultured human cortical microglia for their selectivity for inhibiting microglia activation mediated by amyloid-βpeptide and lipopolysaccharides (LPS). LPS are a major constituent of the cell wall of gama-negative bacteria and are extensively used for generating inflammatory responses in cultured cells and in vivo.

The subject of data set [2] is human cortical neurons. Description: Aβ neurotoxicity in human cortical neurons (alamarBlue), 2 h pretreatment with inhibitor. It counts as cell-based. The note with it: 50 μM Aβ1-40, compound 390 nM to 100 μM, 2 h pretreatment and re-added with Aβ, 3 days, n=3; for Emax / IC50: Homo sapiens, Cortical neurone; for Emax: 72 h, read-out: Max Inh; for IC50: ND = not detected at the concentration range used, read-out: IC50 (dose that inhibited Aβ-mediated neurotoxicity by 50%). The protocol:
(§5) Cultures of human cortical or hippocampal neurons were prepared using a modification of the procedure described in P. Seubert et al. (1992), Nature 359:325-327. Cortical or hippocampal tissue was dissociated by incubation in a trypsin/EDTA solution (0.05% trypsin +0.53 mM EDTA in HBSS; Gibco) for 20 minutes at 37° C. The trypsin was then inactivated by resuspending the cells in serum-containing medium (MEM/FBS): Modified Eagle's Medium (MEM) containing 1% glucose, 1 mM sodium pyruvate, 1 mM glutamine, and supplemented with 10% fetal bovine serum (Gibco). Cells were then pelleted by centrifugation and resuspended in a chemically-defined medium (MEM/B27): MEM containing B27 supplement (Gibco) in place of FBS. Polyethyleneimine (PEI)-coated 6.4-mm (96-well) dishes were rinsed once with MEM/FBS, and then seeded at 0.75-1.25×10^5 cells per well in 0.1 ml MEM/B27. Cultures were maintained in a H2 O-saturated incubator with an atmosphere of 95% air/5% CO2 at 37° C. The culture medium was exchanged twice weekly.
(§6) Amyloid-β (Aβ) stock solutions were prepared as 1 mM stocks in sterile ddH2 O immediately prior to addition to cultures. Rat cortical neurons were exposed to Aβ by removing the culture medium and replacing it with DMEM/N2 or DMEM/B27 containing Aβ1-40. Human cortical neurons were exposed to Aβ by removing the culture medium and replacing it with MEM, MEM/N2, or MEM/B27 containing Aβ1-40. Cultures were maintained for 2-4 days before neuronal survival was quantified using alamarBlue™.
(§7) The alamarBlue™ assay incorporated a proprietary fluorometric/colorimetric metabolic indicator (Alamar Biosciences, Inc.). Viable cells convert alamarBlue™ from an oxidized (non-fluorescent, blue) form to a reduced (fluorescent, red) form. Assays were performed by replacing the culture media with a 10% alamarBlue™ solution in DMEM (rat cortical cultures) or MEM (human cortical cultures). Reduction of alamarBlue™ was determined spectrofluorometrically using a Millipore Cytofluor 2350 Scanner (excitation, […]; emission, 590 nm) and CytoCalc™ software (Millipore Corporation).
The effect of pretreating human cortical neuron cultures with the benzenesulfonamide PLA2 inhibitors and arachidonyl trifluoromethyl ketone prior to exposure to a neurotoxic concentration of Aβ1-40 was determined.
(§8) Human cortical neurons were treated with 50 μM Aβ1-40 and various inhibitors of PLA2. Compounds were added 2 hours prior to Aβ1-40 treatment at concentrations of 390 nM to 100 μM, and were then re-added at the time of Aβ1-40 treatment. Compounds were also added in an identical manner to neuronal cultures in the absence of Aβ1-40. Neuronal survival was determined after 3 days of treatment by alamarBlue®. IC50 is the dose of compound that inhibited Aβ-mediated neurotoxicity by 50%. […] Data represents the mean ± SD (n=3). ND, not detected at the concentration range used.

Data set [3] deals with TNF-α release by cultured human cortical microglia. Description: TNF-α release (ELISA) from Aβ1-40-stimulated human microglia. It counts as cell-based. The note with it: 50 μM Aβ1-40, 1 day; compound 0, 5, 10, 20 μM; FIG. 2. The protocol: as §1, §2, §3, §4
For data set [4], the system named is human cortical neurons. The data set can be described thus: Aβ neurotoxicity / survival of human cortical neurons (alamarBlue), compound added at time of Aβ1-40. It counts as cell-based. The procedure:
as §5, §6, §7
The effect of the two benzenesulfonamide inhibitors of PLA2 in Example 2 were examined to determine the dose-dependence of their effect on neuronal survival in human cortical neuron cultures exposed to 0 μM, 25μM, or 50 μM of Aβ1-40 and varying doses of the benzenesulfonamide.
(§9) Human cortical neurons were treated with 50 μM Aβ1-40 and various inhibitors of PLA2 or PLC. Compounds were added at the time of Aβ1-40 treatment at concentrations 390 nM to 100 μM. Compounds were also added to neuronal cultures in the absence of Aβ1-40. Neuronal survival was determined after 3 days of treatment by alamarBlue®. IC50 is the dose of compound that inhibited Aβ-mediated neurotoxicity by 50%. […] Data represents the mean ± SD (n=3). ND, not detected at the concentration range used.

The subject of data set [5] is human cortical neurons. The data set can be described thus: Compound toxicity to human cortical neurons in absence of Aβ1-40 (alamarBlue, 3 days). It counts as cell-based. The procedure:
as §5, §7, §9
Background: Alamar Blue is a resazurin reagent that responds to reducing activity.

In data set [6] the test system is cPLA2. The note with it: Street et al. (1993); cited from earlier work.
For data set [7], the system named is Ca^+2 -independent PLA2. The note with it: Ackermann et al. (1995); cited from earlier work.
The subject of data set [8] is human cortical neurons. The data set can be described thus: Compound toxicity to human cortical neurons in absence of Aβ1-40, added as in pretreatment protocol. Conditions: no Aβ1-40, 3 days; for TD10 (concentration giving 10% loss of neuronal survival): n=3. It counts as cell-based. The procedure: as §5, §7, §8
A short description of data set [9]: Compound toxicity to human cortical neurons in absence of Aβ1-40 (alamarBlue, 3 days). Conditions: human, cortical neurons. It counts as cell-based. The protocol:
as §5, §7, §9

[10] abbreviates: 50 μM Aβ1-40, compound 390 nM to 100 μM added at time of Aβ, 3 days, n=3.

As for `CN(C(=O)/C=C/c1ccc(C#N)cc1)c1ccc(S(=O)(=O)NC2CCCCCC2)cc1` [AN20628], in data set [1], the “amount of IL-1β released into the medium (in words)” value is “marked and dose-dependent decrease”. Moreover, the Emax in data set [2] was 87%. Moreover, the half-maximal inhibitory concentration (IC50) – broadly, the concentration at which inhibition is half-maximal – in data set [2] was determined as 4 µM; in data set [4] (Homo sapiens, Cortical neurone, 72 h, 50 μM Aβ1-40, compound 390 nM to 100 μM added at time of Aβ, 3 days, n=3, ND = not detected at the concentration range used, read-out: IC50 (dose that inhibited Aβ-mediated neurotoxicity by 50%)), 8 µM. Besides, in data set [3], the “amount of TNF-α released into the medium (in words)” value is “marked and dose-dependent decrease”. The “neuronal survival in the presence of pathogenic Aβ peptide (in words)” value in data set [4] (0, 25 or 50 μM Aβ1-40, varying doses, FIG. 3, FIG. 4) is “dose-dependent increase in neuronal survival”. Also, the “Max Inh” value in [4] (setting [10]) came to 82%. The “TD10 (concentration giving 10% loss of neuronal survival)” value in data set [5] (human, 4320 min) is 73 µM.

Consider `O=C1O/C(=C/Br)CCC1c1cccc2ccccc12` (stereo not drawn) [Bromoenol Lactone, (e)-6-(bromomethylene)tetrahydro-3-(1-naphthalenyl)-2H-pyran-2-one], for which the Emax in data set [2] was 41%. In data set [6], the “inhibition of cPLA2” value is on record as “capable of inhibiting”. Also, in [7], the “inhibition of Ca^+2 -independent PLA2 activity” value is “capable of inhibiting”.

Take `CCCCCCCCCCCC=CC(C)(C)C=CCCCC(=O)O` [DEDA, 7,7,-dimethyl-5,8-eicosadienoic acid]: the Emax in [2] amounted to 19%.

For the compound `C[C@H]1c2cccc(O)c2C(O)=C2C(=O)[C@]3(O)C(O)=C(C(N)=O)C(=O)[C@@H](N(C)C)[C@@H]3[C@@H](O)[C@@H]21` [Doxycycline], in [2], the Emax amounted to 0%.

Take `CN(C)c1ccc(O)c2c1C[C@H]1C[C@H]3[C@H](N(C)C)C(O)=C(C(N)=O)C(=O)[C@@]3(O)C(O)=C1C2=O` [Minocycline]: in data set [2], the Emax was found to be 69% and the IC50 is 71 µM. In addition, in data set [8], the “TD10 (concentration giving 10% loss of neuronal survival)” value is 78 µM.

On to `CCN(CC)CCCC(C)Nc1c2ccc(Cl)cc2nc2ccc(OC)cc12` (stereo not drawn) [Quinacrine], for which the “Max Inh” value in data set [4] (setting [10]) is 2%. The compound further came in with a CC50 at 72 h in [9] of 9 µM. Also, in data set [5] (human, 4320 min), the “TD10 (concentration giving 10% loss of neuronal survival)” value was determined as 6 µM.

Turning to `COc1ccc2c(c1)CC[C@@H]1[C@@H]2CC[C@]2(C)[C@@H](NCCCCCCN3C(=O)CCC3=O)CC[C@@H]12` [U73343], the “Max Inh” value in data set [4] (setting [10]) came out at 10%. The CC50 at 72 h in data set [9] (no Aβ1-40, 3 days, 390 nM to 100 μM, n=3, ND = not detected at the concentration range used, read-out: TD50 (concentration giving 50% loss of neuronal survival)) amounted to 8 µM. The “TD10 (concentration giving 10% loss of neuronal survival)” value in [5] (no Aβ1-40, 3 days, 390 nM to 100 μM, n=3) came out at 6 µM.

For the compound `CCCCCCCCCCCCCCCC(=O)C(F)(F)F` [palmitoyl trifluoromethyl ketone], the “inhibition of cPLA2” value in [6] is given as “capable of inhibiting”. The “inhibition of Ca^+2 -independent PLA2 activity” value in [7] is given as “capable of inhibiting”.

On to Oleoyloxyethyl Phosphocholine, for which the “Max Inh” value in [2] is recorded as 40%. The “TD10 (concentration giving 10% loss of neuronal survival)” value in [8] amounted to 17 µM. Further, in [8] (n=3, ND = not detected at the concentration range used, read-out: TD50 (concentration giving 50% loss of neuronal survival)), the CC50 came out at 29 µM.
